# According to article PMC6800282, “Make the right measurement: Discovery of an allosteric inhibition site for p300-HAT” (Structural Dynamics, 2019):
# Values joined by “and” are separate entries in the source; they are usually repeats but may differ in a detail not shown here. Equal entries are not always repeated.
# Assays:
# [1] = tested on: H3K18 acetylation in HCT116 cells; experiment: Inhibition of H3K18 acetylation in HCT116 cells; type: cell-based; conditions: Homo sapiens, HCT-116, read-out: H3K18Ac EC50
# [2] = target: T1, full-length human p300 (FL-P300) (Homo sapiens, UniProt Q09472); experiment: Full-length p300 SPA; type: biochemical; conditions: for Inhibition of FL enzyme: full-length P300
# T1 construct: polyhistidine tag with TEV site (HisTev) (N); StrepII (C); made in house; host or cells: Sf9 insect cells (baculovirus)
# Text: The sequence of 2414-residue full-length human p300 (FL-P300) was codon-optimized for insect cell expression and synthesized in three parts (Genscript). After assembly of the full-length sequence, the complete ORF was subcloned into a modified pTriEx vector (Novagen/EMD Millipore) to express FL-P300 with both an N-terminal, cleavable polyhistidine tag and C-terminal StrepII tag (HisTev-p300-Strep). Baculovirus was produced by co-transfection of the plasmid into Sf9 cells with linearized baculovirus BestBac2.0 (Expression Systems). The protein was expressed in Sf9 cells and purified with Talon Metal Affinity Resin (Clontech/Takara). The purified protein was concentrated to 1.6 mg/ml in storage buffer (50 mM Tris pH 8, 100 mM NaCl, 10% glycerol, and 0.5 mM TCEP).
# At this point in the program, quantities of highly purified FL P300 were more readily available (preparation described above), and so HAT inhibitors were retested against FL P300 under optimized conditions. A large shift relative to the P300-HAT catalytic domain assay was observed.
# [3] = target: T2, WT P300 HAT domain (Homo sapiens, UniProt Q09472); experiment: p300 HAT domain SPA catalytic assay with peptide substrate; type: biochemical; conditions: for Mechanism of inhibition (excess substrate MOI tests): 10× AcCoA, 30× histone peptide; for IC50: HAT domain construct K1287-F1666
# T2 construct: WT HAT construct = K1287-F1666 including the L1520-L1580 regulatory loop, expressed as HisTev fusion; HisTev (polyhistidine tag with TEV site); made in house
# T2 sequence (Q09472 1287-1666): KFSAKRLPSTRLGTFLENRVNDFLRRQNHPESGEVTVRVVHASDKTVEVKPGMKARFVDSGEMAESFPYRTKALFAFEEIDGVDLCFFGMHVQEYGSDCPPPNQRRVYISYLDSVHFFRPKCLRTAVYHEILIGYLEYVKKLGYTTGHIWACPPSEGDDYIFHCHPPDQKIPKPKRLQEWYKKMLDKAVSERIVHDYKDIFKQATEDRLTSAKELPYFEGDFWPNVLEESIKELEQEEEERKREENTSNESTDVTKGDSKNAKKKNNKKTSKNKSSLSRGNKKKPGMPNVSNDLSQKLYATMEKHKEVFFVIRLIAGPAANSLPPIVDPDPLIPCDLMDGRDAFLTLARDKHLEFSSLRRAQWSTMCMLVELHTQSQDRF
# Experimental: To identify starting points for modulating p300/CBP activity, high throughput screening was carried out using the WT P300 HAT domain (WT HAT construct = K1287-F1666 including the L1520-L1580 regulatory loop, expressed as HisTev fusion) and a peptide substrate in a catalytic assay. After extensive triage, several validated inhibitor types were identified, one of which will be the focus of this report. A more detailed description of the HTS efforts will be the subject of a forthcoming publication by Huhn et al. At this stage of the project, only the HAT domain of p300 was used, as it was not yet feasible to obtain sufficient quantities of full-length P300 (FL-P300) to conduct a high-throughput screen of >150,000 compounds.
# [4] = target: CBP HAT (Homo sapiens, UniProt Q92793); experiment: CBP HAT SPA; type: biochemical
# [5] = target: T3, P300-HAT domain (Homo sapiens, UniProt Q09472); experiment: Dynamic scanning fluorimetry (DSF); type: binding; conditions: for ΔTm at 250 µM: compound at 250 μM
# T3 sequence (Q09472 1287-1666): T2 sequence (Q09472 1287-1666)
# Text: Additionally, given their small size, it seemed unlikely that CPI-076 and CPI-090 blocked both sites.
# [6] = full-length enzyme, optimized conditions
# T1 sequence (Q09472 whole entry): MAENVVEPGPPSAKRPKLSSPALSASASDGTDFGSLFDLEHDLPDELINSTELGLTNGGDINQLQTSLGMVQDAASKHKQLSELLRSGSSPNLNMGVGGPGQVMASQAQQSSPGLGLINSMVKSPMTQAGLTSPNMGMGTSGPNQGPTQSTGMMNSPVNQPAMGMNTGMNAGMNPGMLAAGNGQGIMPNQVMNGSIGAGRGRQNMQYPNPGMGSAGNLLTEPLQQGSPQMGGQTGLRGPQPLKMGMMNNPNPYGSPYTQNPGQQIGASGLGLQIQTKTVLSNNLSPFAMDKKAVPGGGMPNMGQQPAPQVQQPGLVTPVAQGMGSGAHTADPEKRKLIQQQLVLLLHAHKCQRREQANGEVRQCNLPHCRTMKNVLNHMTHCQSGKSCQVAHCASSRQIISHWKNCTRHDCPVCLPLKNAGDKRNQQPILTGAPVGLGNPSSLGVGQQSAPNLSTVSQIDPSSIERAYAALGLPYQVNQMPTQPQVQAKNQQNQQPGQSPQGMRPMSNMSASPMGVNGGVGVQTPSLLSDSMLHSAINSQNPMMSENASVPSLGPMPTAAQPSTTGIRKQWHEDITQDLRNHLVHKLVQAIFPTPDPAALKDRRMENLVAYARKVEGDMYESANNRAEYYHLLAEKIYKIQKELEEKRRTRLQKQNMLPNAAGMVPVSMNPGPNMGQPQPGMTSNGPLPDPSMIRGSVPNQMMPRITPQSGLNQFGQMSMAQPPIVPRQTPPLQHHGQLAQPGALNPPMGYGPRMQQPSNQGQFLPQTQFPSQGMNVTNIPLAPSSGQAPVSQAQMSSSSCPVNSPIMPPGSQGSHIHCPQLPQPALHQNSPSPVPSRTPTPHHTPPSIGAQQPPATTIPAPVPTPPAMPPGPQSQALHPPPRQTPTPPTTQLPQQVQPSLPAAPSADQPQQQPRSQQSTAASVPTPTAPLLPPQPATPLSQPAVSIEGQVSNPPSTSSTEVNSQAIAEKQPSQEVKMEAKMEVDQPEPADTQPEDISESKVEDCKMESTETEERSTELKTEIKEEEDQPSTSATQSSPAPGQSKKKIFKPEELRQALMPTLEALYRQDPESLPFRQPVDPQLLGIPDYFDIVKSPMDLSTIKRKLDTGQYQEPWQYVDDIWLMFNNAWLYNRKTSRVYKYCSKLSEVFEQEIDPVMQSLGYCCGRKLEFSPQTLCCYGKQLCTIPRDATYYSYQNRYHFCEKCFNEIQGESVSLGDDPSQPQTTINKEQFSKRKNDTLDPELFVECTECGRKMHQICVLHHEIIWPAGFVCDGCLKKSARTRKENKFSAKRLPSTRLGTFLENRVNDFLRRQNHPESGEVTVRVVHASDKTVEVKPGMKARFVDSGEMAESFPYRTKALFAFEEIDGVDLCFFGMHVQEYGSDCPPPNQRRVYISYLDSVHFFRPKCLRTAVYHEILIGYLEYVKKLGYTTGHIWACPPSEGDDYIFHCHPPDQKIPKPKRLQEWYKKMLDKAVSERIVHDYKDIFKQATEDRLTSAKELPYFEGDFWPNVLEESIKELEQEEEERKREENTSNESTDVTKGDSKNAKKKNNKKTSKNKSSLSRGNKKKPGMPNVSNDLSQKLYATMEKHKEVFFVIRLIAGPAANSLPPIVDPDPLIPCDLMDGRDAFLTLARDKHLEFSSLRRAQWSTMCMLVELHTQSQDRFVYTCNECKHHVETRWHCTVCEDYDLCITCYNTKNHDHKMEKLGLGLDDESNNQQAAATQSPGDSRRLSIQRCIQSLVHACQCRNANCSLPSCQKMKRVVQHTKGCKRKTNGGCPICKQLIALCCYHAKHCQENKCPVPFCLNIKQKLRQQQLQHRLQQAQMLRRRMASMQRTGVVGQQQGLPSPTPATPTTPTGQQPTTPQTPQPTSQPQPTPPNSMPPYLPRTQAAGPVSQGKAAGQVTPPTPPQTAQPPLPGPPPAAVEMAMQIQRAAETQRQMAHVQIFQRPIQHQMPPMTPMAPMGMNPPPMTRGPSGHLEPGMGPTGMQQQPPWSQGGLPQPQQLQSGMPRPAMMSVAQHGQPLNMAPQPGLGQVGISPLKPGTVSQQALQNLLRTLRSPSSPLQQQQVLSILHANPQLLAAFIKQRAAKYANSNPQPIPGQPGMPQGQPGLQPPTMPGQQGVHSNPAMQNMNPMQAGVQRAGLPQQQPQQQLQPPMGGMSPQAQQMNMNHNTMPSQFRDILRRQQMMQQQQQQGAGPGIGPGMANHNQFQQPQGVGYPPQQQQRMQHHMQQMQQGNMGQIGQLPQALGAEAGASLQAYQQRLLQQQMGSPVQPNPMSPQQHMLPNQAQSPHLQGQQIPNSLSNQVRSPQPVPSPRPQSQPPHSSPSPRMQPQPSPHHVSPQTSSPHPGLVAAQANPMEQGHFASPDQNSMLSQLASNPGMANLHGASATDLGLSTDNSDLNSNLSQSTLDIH
# Chain of CBP HAT (Q92793 1323-1700 limits assumed): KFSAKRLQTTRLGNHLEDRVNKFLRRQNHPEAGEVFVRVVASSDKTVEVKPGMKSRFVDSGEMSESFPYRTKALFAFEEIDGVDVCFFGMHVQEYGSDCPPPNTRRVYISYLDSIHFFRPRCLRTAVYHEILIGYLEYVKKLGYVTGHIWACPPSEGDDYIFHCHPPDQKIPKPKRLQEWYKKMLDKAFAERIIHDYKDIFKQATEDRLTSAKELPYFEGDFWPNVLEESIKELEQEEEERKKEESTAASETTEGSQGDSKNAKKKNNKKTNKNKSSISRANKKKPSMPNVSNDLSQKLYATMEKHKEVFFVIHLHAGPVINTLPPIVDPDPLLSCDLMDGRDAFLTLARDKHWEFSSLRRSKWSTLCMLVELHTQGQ
EC50 [1] [µM],Inhibition of FL enzyme [2],"IC50 [2, 6] [µM]",IC50 [3],IC50 [4] [µM],DSF stabilization [5],ΔTm at 250 µM [5] [°C],"FL p300 SPA IC50 [2, 6]",SMILES,Mechanism of inhibition (excess substrate MOI tests) [3]
> 30,does not inhibit the FL enzyme,> 160,0.318 µM and 0.31 µM,0.74,strong stabilization,5.8,,Cc1[nH]c2ccccc2c1-c1ncc(C(F)(F)F)cc1Cl [CPI-090],AcCoA- and peptide-modulating compounds but not wholly competitive
,no measurable FL activity,,20 µM,39,,1.3,Undetectable,CC(=O)Nc1cccs1 [CPI-076],AcCoA- and peptide-modulating compounds but not wholly competitive
